Assay results from PMC4640066 (Nature Communications, 2015).

Assays:
human γ-tubulin = biological target: T1, human γ-tubulin (Homo sapiens, UniProt P23258); assay: Tryptophan-based drug-binding assay, γ-tubulin; settings: for Ratio of Kd[α/β-tubulin]/Kd[γ-tubulin]: selectivity for γ-tubulin over α/β-tubulin
T1 construct: myc (C); 6His (C); made in house; host or cells: Sf21 insect cells (baculovirus)
Protocol: In brief, 0.7 × 10^6 cells ml^−1 were infected with the γ-tubulin baculovirus. After 48 h, cells were collected by centrifugation at […] for 10 min and flash-frozen in liquid nitrogen and stored at −80 °C. Purification was carried out as described with slight modifications. […] Imidazole (final 10 mM) was added and the lysate was centrifuged again at 192,800g for 30 min at 4 °C. […] Ni-NTA Agarose was then washed twice with wash buffer 1 (lysis buffer containing 25 mM imidazole) and wash buffer 2 (50 mM MES pH 6.6, 500 mM KCl, 5 mM MgCl2, 10% glycerol, 10 μM GTP and 1 mM DTT) containing 25 mM imidazole. γ-Tubulin was eluted with wash buffer 2 containing 200 mM imidazole.
Monomeric γ-tubulin was prepared using a size exclusion column HiLoad 16/60 Superdex 200 pre-equilibrated with gel filtration buffer (50 mM MES pH 6.6, 500 mM KCl, 5 mM MgCl2, 1 mM EGTA, 10 μM GTP and 1 mM DTT). The peak fractions representing monomeric γ-tubulin were identified by A280 and confirmed using SDS–PAGE. Protein was concentrated using a Vivaspin concentrator (Sartorius) and supplemented with 10% glycerol, following snap-freezing in liquid nitrogen and storage at −80 °C.
Gel filtration buffer for γ-tubulin purification (50 mM MES pH 6.6, 500 mM KCl, 5 mM MgCl2, 1 mM EGTA and 1 mM DTT) supplemented with 10% of glycerol was used as an assay buffer. γ-tubulin and α/β-tubulin were diluted in this assay buffer to reach a final protein concentration of 1 μM. A final concentration of 10 μM or 1 mM GTP was added to the samples. Proteins were incubated for 30 min with compounds (final DMSO concentration was 1%; 2% for AG1 and gatastatin). […] Dissociation constants were calculated from fitting curves of decreasing fluorescence (ΔFL) using the GraphPad Prizm software.

[1] = test system: HeLa cells expressing EB3-EGFP (mitotic spindle); assay: EB3-EGFP signal tracking, mitotic (MG132 metaphase) cells; assay type: cell-based, human; settings: 30 μM
Protocol: Figure 4 Impact of gatastatin on mitotic spindle dynamics. (a,b) γ-Tubulin function is important for normal bipolar spindle formation. (a) Scheme of the experiment in b. HeLa cells were arrested at prometaphase by treatment with 10 μM of STLC for 15 h before STLC was washed out. Progression through mitotic phases was then monitored either in the presence or absence of 30 μM of gatastatin for 2 h. (b) The mitotic stages of 20 cells per experiment from the scheme in a were analysed in three independent experiments. Error bars represent s.d. (c–e) γ-Tubulin function is important for normal bipolar spindle maintenance. (c) Scheme of the experiment in d,e. After STLC washout, HeLa cells were arrested at metaphase with bipolar spindles by treatment with 5 μM of MG132 for 2 h. 30 μM Gatastatin was added to cells and incubated for 2 h in the presence of MG132. (d) The spindle length (distance between centrosomes) of cells in scheme c was measured as described in Fig. 3g. Spindles of 20 cells per experiment were analysed. Three independent experiments were performed and one representative experiment is shown. Error bars represent s.d. Two-tailed, unpaired Student's t-test was used to obtain P value. (e) The effect of gatastatin on spindle MT dynamics was analysed using HeLa cells expressing EB3-EGFP. EB3 signals of spindle in c were monitored. […] Scale bar, 5 μm.
A HeLa ‘Kyoto' cell line stably expressing EB3-EGFP (a kind gift from Dr J. Ellenberg) was maintained in DMEM+GlutaMAX (Gibco) supplemented with 10% FBS, 2 mM L-glutamine, 100 U ml^−1 penicillin, 100 μg ml^−1 streptomycin, 1 mM sodium pyruvate and 0.5 mg ml^−1 G418. Cells were seeded into eight-well Lab-Tek chambers (Nunc, Rochester, NY) for 24-h prior imaging. For imaging, the medium was exchanged to Live Cell Imaging Solution (Molecular Probes Life Technologies) supplemented as described above and containing various concentrations of AG1 or gatastatin. Interphase cells were incubated with drugs for 15 min and mitotic cells were treated as described in Fig. 4c. Then, EB3 tracks were observed under a PerkinElmer UltraVIEW ERS Spinning Disk microscope (Software: UltraVIEW ERS Imaging Suite) equipped with a Plan-APOCHROMAT × 100/1.4 Oil DIC objective, a Confocal Scanner Unit (Yokogawa CSU 22), a Hamamatsu EM CCD camera (C9100-50) and a 488-nm Argon laser at 37 °C, and time-lapse sequences were performed for 60 s with a 400-ms interval. Automatic analysis of EB3-EGFP signal tracks was performed with ImageJ (http://imagej.nih.gov/ij/) and Matlab (Mathworks) as described.

HeLa cells = assay: Analysis of interphase MT network; assay type: cell-based, human; settings: 100 μM, 2.5 h
Protocol: HeLa cells were cultured in DMEM containing 10% FBS in a humidified atmosphere containing 5% CO2. After treatment with each compound for 2.5 h (interphase MT network) or 5 h (mitotic spindle), the cells were immediately fixed with cold MeOH (−20 °C). After blocking with PBS containing 0.5% bovine serum albumin, cells were incubated with anti-α-tubulin antibodies (1:500 dilution, Santa Cruz, Cat# sc-32293) to observe interphase cells, or with anti-BubR1 (1:250 dilution, BD Bioscience, Cat# 612502) and anti-α-tubulin (1:250 dilution, MBL, Cat# PM054) antibodies to observe mitotic spindle. After staining with Alexa^488-conjugated anti-mouse IgG (1:2,000 dilution, Invitrogen, Cat#A11001) and Alexa568-conjugated anti-rabbit IgG (1:2000 dilution, Invitrogen, Cat#A11011), cells were washed four times with PBS and mounted with PBS containing 0.1 μg ml^−1 DAPI. MTs and BubR1 signals were observed under a Leica LAS AF 6000 fluorescence microscope (Leica Microsystems) or an LSM 700 laser-scanning confocal microscope (Zeiss).

[2] = 2 h with MG132, mitotic HeLa EB3-EGFP, mean±s.d.

T1 sequence (P23258 whole entry): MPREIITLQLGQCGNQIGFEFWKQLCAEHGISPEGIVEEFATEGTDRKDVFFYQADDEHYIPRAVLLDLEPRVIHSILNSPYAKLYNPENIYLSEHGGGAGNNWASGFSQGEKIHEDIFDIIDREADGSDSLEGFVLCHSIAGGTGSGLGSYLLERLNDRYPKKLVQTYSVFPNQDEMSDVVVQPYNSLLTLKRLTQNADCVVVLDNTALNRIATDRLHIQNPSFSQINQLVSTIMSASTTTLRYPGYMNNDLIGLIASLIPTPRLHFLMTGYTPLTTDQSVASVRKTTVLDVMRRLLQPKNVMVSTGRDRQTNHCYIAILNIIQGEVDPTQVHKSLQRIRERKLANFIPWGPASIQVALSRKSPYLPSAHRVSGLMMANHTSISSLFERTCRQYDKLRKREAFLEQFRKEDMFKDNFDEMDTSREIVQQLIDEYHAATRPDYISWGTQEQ

Ratio of Kd[α/β-tubulin]/Kd[γ-tubulin] (human γ-tubulin): 11.81 | Ratio of Kd[α/β-tubulin]/Kd[γ-tubulin] (human γ-tubulin; listed as gatastatin): 12 | Kd (human γ-tubulin; tryptophan fluorescence decrease, 1 μM protein, mean±s.d., three independent experiments): 3.6 ± 1.3 µM
SMILES: COc1cc2c(=O)c(-c3cc(OC)c4c(c3OC)OCO4)coc2cc1OCc1ccccc1 [Gatastatin, O^7-demethylbenzyl AG1]
Track length [1, 2]: 0.53±0.09 μm | Track lifetime [1, 2]: 1.76 ± 0.66 s | Velocity [1, 2]: 11.21±1.68 μm min^−1 | Track numbers ([1]; 2 h with MG132, mitotic, from a 25-μm^2 area in the spindle): 37.27±8.12 | Reduction of the number of growing MTs ([1]; preformed metaphase spindle (MG132), compared with control): 17% | Effect on interphase MT network (HeLa cells): did not obviously change the appearance of the interphase MT network
